Measured values reported in ChEMBL document CHEMBL1150771, “Synthesis and potency of novel uracil nucleotides and derivatives as P2Y2 and P2Y6 receptor agonists” (Bioorg Med Chem, 2008).

Legend:
P2Y purinoceptor 6 = P2Y purinoceptor 6 (Homo sapiens, UniProt Q15077); assay: Agonist activity at human P2Y6 receptor expressed in human 1321N1 cells assessed as [3H]inositol phosphate accumulation by scintillation proximity assay; assay type: functional, cell-based
P2Y purinoceptor 2 = P2Y purinoceptor 2 (Homo sapiens, UniProt P41231); assay: Agonist activity at human P2Y2 receptor expressed in human 1321N1 cells assessed as [3H]inositol phosphate accumulation by scintillation proximity assay; assay type: functional, cell-based
Sequence of P2Y purinoceptor 2 (P41231 whole entry): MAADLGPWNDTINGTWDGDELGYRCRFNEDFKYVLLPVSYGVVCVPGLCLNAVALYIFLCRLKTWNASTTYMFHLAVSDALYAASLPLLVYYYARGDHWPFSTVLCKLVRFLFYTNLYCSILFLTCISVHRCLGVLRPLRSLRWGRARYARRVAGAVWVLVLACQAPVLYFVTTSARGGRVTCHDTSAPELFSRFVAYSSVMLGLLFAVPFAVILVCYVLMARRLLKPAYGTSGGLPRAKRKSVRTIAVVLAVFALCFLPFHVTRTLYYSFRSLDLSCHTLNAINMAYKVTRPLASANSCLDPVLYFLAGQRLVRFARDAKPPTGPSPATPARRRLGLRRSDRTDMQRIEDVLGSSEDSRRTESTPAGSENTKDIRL

P2Y purinoceptor 4 = P2Y purinoceptor 4 (Homo sapiens, UniProt P51582); assay: Agonist activity at human P2Y4 receptor expressed in human 1321N1 cells assessed as [3H]inositol phosphate accumulation by scintillation proximity assay; assay type: functional, cell-based
Sequence of P2Y purinoceptor 4 (P51582 whole entry): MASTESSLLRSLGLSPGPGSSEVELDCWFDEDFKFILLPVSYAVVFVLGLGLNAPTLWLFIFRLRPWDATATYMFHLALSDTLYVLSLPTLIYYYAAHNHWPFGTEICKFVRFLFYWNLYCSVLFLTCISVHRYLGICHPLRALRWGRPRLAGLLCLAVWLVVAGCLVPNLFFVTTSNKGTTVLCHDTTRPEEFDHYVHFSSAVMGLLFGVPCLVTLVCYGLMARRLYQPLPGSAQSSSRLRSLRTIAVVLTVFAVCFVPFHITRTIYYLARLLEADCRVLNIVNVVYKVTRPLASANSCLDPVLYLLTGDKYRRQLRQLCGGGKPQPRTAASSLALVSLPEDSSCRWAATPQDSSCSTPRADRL

Homo sapiens = organism: Homo sapiens; assay: Selectivity for human P2Y2 receptor over human P2Y4 receptor

Sequence of P2Y purinoceptor 6 (Q15077 whole entry): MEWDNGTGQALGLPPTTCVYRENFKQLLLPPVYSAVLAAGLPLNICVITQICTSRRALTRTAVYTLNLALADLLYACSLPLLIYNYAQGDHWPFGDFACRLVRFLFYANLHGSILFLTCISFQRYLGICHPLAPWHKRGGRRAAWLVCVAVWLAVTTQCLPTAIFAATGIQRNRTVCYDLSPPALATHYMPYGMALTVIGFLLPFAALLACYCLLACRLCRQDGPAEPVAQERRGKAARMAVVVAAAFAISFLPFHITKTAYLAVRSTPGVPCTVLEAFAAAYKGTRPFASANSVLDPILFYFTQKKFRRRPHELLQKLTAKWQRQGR

Compound | EC50 (P2Y purinoceptor 6) [µM] | EC50 (P2Y purinoceptor 2) [µM] | EC50 (P2Y purinoceptor 4) [µM] | Ratio EC50 (Homo sapiens)
Nc1ccn([C@H]2C[C@H](O)[C@@H](COP(=O)(O)OP(=O)(O)OP(=O)(O)OP(=O)(O)OC[C@H]3O[C@@H](n4ccc(=O)[nH]c4=S)[C@H](O)[C@@H]3O)O2)c(=O)n1 | 1.05 | 0.08 | 0.71 | 9
NC(=O)N[C@@H]1[C@H](O)[C@@H](COP(=O)(O)OP(=O)(O)O)O[C@H]1n1ccc(=O)[nH]c1=O | 4.7 | – | – | –
O=c1ccn([C@@H]2O[C@H](COP(=O)(O)OP(=O)(O)OP(=O)(O)OP(=O)(O)OC[C@H]3OC(O)[C@@H](O)[C@@H](O)[C@@H]3O)[C@@H](O)[C@H]2O)c(=O)[nH]1 (stereo not given in full) | > 10 | > 10 | > 10 | –
O=c1ccn([C@@H]2O[C@H](COP(=O)(O)OP(=O)(O)C(F)(F)P(=O)(O)OP(=O)(O)OC[C@H]3O[C@@H](n4ccc(=O)[nH]c4=O)[C@H](O)[C@@H]3O)[C@@H](O)[C@H]2O)c(=O)[nH]1 | > 10 | 2.27 | > 10 | –
O=c1ccn([C@@H]2O[C@H](COP(=O)(O)OP(=O)(O)OP(=O)(O)OP(=O)(O)OC3CCCCC3)[C@@H](O)[C@H]2O)c(=O)[nH]1 | > 10 | 5.86 | > 10 | –
CSc1ccn([C@@H]2O[C@H](COP(=O)(O)OP(=O)(O)OP(=O)(O)O)[C@@H](O)[C@H]2O)c(=S)n1 | > 10 | 0.91 | 5.35 | –
O=c1ccn([C@@H]2O[C@H](COP(=O)(O)OP(=O)(O)C(F)(F)P(=O)(O)O)[C@@H](O)[C@H]2O)c(=S)[nH]1 | 5.15 | 1.63 | 8.11 | –
O=c1ccn([C@@H]2O[C@H](COP(=O)(O)OP(=O)(O)OP(=O)(O)OP(=O)(O)O[C@H]3O[C@H](CO)[C@@H](O)[C@H](O)[C@H]3O)[C@@H](O)[C@H]2O)c(=O)[nH]1 | 7.83 | 0.3 | 2.06 | –
Nc1nc2c(ncn2[C@H]2C[C@H](O)[C@@H](COP(=O)(O)OP(=O)(O)OP(=O)(O)OP(=O)(O)OC[C@H]3O[C@@H](n4ccc(=O)[nH]c4=O)[C@H](O)[C@@H]3O)O2)c(=O)[nH]1 | 1.03 | 0.14 | 0.54 | –
O=c1ccn([C@@H]2O[C@H](COP(=O)(O)OP(=O)(O)OP(=O)(O)OC[C@H]3O[C@@H](n4ccc(=O)[nH]c4=O)[C@H](O)[C@@H]3O)[C@@H](O)[C@H]2O)c(=O)[nH]1 | 0.27 | 1.31 | 0.87 | –
O=c1ccn([C@@H]2O[C@H](COP(=O)(O)OP(=O)(O)OP(=O)(O)OP(=O)(O)O[C@H]3O[C@H](CO)[C@H](O)[C@H](O)[C@H]3O)[C@@H](O)[C@H]2O)c(=O)[nH]1 | 8.19 | 4.85 | 1.77 | –
O=c1[nH]c(=S)ccn1[C@@H]1O[C@H](COP(=O)(O)OP(=O)(O)OP(=O)(O)OP(=O)(O)O)[C@@H](O)[C@H]1O | 6.46 | 0.07 | 0.28 | –
NC(=O)N[C@@H]1[C@H](O)[C@@H](COP(=O)(O)OP(=O)(O)OP(=O)(O)O)O[C@H]1n1ccc(=O)[nH]c1=O | > 10 | 1.74 | 4.64 | –
O=c1ccn([C@@H]2O[C@H](COP(=O)(O)OP(=O)(O)C(Cl)(Cl)P(=O)(O)O)[C@@H](O)[C@H]2O)c(=S)[nH]1 | > 10 | 2.51 | – | –
O=c1ccn([C@@H]2O[C@H](COP(=O)(O)OP(=O)(O)OP(=O)(O)OP(=O)(O)O)[C@@H](O)[C@H]2O)c(=O)[nH]1 | 7.56 | 2.61 | 4.64 | –
O=c1ccn([C@@H]2O[C@H](COP(=O)(O)OP(=O)(O)OP(=O)(O)OP(=O)(O)OC[C@@H]3OC(O)[C@@H](O)[C@H]3O)[C@@H](O)[C@H]2O)c(=O)[nH]1 (stereo not given in full) | > 10 | 1.88 | 4.78 | –
O=c1ccn([C@@H]2O[C@H](COP(=O)(O)OP(=O)(O)OP(=O)(O)OC[C@H]3O[C@@H](n4cc(I)c(=O)[nH]c4=O)[C@H](O)[C@@H]3O)[C@H]3OC(Cc4ccccc4)O[C@H]32)c(=O)[nH]1 (stereo not given in full) | 5.49 | 9.97 | – | –

Compound | EC50 (P2Y purinoceptor 6) [µM] | EC50 (P2Y purinoceptor 2) [µM] | EC50 (P2Y purinoceptor 4) [µM] | Ratio EC50 (Homo sapiens)
N#CCCOP(=O)(O)OP(=O)(O)OP(=O)(O)OP(=O)(O)OC[C@H]1O[C@@H](n2ccc(=O)[nH]c2=O)[C@H](O)[C@@H]1O | > 10 | 1.7 | 1.96 | –
O=c1ccn([C@@H]2O[C@H](COP(=O)(O)OP(=O)(O)C(Cl)(Cl)P(=O)(O)OP(=O)(O)OC[C@H]3O[C@@H](n4ccc(=O)[nH]c4=O)[C@H](O)[C@@H]3O)[C@@H](O)[C@H]2O)c(=O)[nH]1 | – | 7.77 | – | –
O=c1ccn([C@@H]2O[C@H](COP(=O)(O)OP(=O)(O)OP(=O)(O)OP(=O)(O)OP(=O)(O)O)[C@@H](O)[C@H]2O)c(=S)[nH]1 | 7.33 | 0.57 | 5.27 | –
O=c1[nH]c(=S)ccn1[C@@H]1O[C@H](COP(=O)(O)OP(=O)(O)OP(=O)(O)OP(=O)(O)OC[C@H]2O[C@@H](n3ccc(=S)[nH]c3=O)[C@H](O)[C@@H]2O)[C@@H](O)[C@H]1O | 2.03 | 0.03 | 0.08 | –
O=c1ccn([C@@H]2O[C@H](COP(=O)(O)OP(=O)(O)OP(=O)(O)OP(=O)(O)OC[C@H]3OC(O)C[C@@H](O)[C@@H]3O)[C@@H](O)[C@H]2O)c(=O)[nH]1 (stereo not given in full) | > 10 | 3.54 | 4.32 | –
Nc1cn([C@@H]2O[C@H](COP(=O)(O)OP(=O)(O)O)[C@@H](O)[C@H]2O)c(=O)[nH]c1=O | 0.61 | – | – | –
O=c1ccn([C@@H]2O[C@H](COP(=O)(O)CP(=O)(O)O)[C@@H](O)[C@H]2O)c(=O)[nH]1 | 0.66 | – | – | –
COP(=O)(O)OP(=O)(O)OP(=O)(O)OP(=O)(O)OC[C@H]1O[C@@H](n2ccc(=O)[nH]c2=O)[C@H](O)[C@@H]1O | > 10 | 3.95 | 2.7 | –
O=c1ccn([C@@H]2O[C@H](COP(=O)(O)OP(=O)(O)OP(=O)(O)OP(=O)(O)Oc3ccccc3)[C@@H](O)[C@H]2O)c(=O)[nH]1 | – | 1.89 | – | –
O=c1ccn([C@@H]2O[C@H](COP(=O)(O)OP(=O)(O)OP(=O)(O)OP(=O)(O)OCC(O)CO)[C@@H](O)[C@H]2O)c(=O)[nH]1 (stereo not given in full) | 8.19 | 1.87 | 1.12 | –
C[C@@]1(O)[C@H](O)[C@@H](COP(=O)(O)OP(=O)(O)OP(=O)(O)O)O[C@H]1n1ccc(=O)[nH]c1=O | – | 1.45 | 1.26 | –
O=c1ccn([C@@H]2O[C@H](COP(=O)(O)OP(=O)(O)OP(=O)(O)O)[C@@H](O)[C@H]2O)c(=O)[nH]1 [URIDINE TRIPHOSPHATE] | > 10 | 0.06 | 0.09 | –
O=c1ccn([C@@H]2O[C@H](COP(=O)(O)OP(=O)(O)OP(=O)(O)OP(=O)(O)OC[C@@H]3O[C@@](O)(CO)[C@H](O)[C@H]3O)[C@@H](O)[C@H]2O)c(=O)[nH]1 | – | 3.33 | 6.3 | –
O=c1ccn([C@@H]2O[C@H](COP(=O)(O)OP(=O)(O)OP(=O)(O)OP(=O)(O)O)[C@@H](O)[C@H]2O)c(=S)[nH]1 | 6.83 | 0.6 | 5.52 | –
Nc1ccn([C@H]2C[C@H](O)[C@@H](COP(=O)(O)OP(=O)(O)OP(=O)(O)OP(=O)(O)OC[C@H]3O[C@@H](n4ccc(=O)[nH]c4=O)[C@H](O)[C@@H]3O)O2)c(=O)n1 [DENUFOSOL] | 0.95 | 0.14 | 0.14 | –
O=c1ccn([C@@H]2O[C@H](COP(=O)(O)OP(=O)(O)OP(=O)(O)O)[C@@H](O)[C@@H]2O)c(=S)[nH]1 | – | 0.14 | 7.93 | –
